Measurements taken from BindingDB's records for patent US20260028321 (Chong Kun Dang Pharmaceutical, 2026).

Columns and labels:
Histone deacetylase 1 = Histone deacetylase 1 (Homo sapiens, UniProt Q13547); assay: Inhibition of HDAC Enzyme Activity (In Vitro)
Procedure: (§1) In the HDAC1 assay, the test substance was treated at concentrations of 100, 1000, and 10000 nM, and in the HDAC6 assay, the test substance was treated at concentrations of 0.1, 1, 10, 100, and 1000 nM.

Histone deacetylase 6 = biological target: T1, Histone deacetylase 6 (Homo sapiens, UniProt Q9UBN7); assay: Inhibition of HDAC Enzyme Activity (In Vitro)
T1 sequence (Q9UBN7 whole entry): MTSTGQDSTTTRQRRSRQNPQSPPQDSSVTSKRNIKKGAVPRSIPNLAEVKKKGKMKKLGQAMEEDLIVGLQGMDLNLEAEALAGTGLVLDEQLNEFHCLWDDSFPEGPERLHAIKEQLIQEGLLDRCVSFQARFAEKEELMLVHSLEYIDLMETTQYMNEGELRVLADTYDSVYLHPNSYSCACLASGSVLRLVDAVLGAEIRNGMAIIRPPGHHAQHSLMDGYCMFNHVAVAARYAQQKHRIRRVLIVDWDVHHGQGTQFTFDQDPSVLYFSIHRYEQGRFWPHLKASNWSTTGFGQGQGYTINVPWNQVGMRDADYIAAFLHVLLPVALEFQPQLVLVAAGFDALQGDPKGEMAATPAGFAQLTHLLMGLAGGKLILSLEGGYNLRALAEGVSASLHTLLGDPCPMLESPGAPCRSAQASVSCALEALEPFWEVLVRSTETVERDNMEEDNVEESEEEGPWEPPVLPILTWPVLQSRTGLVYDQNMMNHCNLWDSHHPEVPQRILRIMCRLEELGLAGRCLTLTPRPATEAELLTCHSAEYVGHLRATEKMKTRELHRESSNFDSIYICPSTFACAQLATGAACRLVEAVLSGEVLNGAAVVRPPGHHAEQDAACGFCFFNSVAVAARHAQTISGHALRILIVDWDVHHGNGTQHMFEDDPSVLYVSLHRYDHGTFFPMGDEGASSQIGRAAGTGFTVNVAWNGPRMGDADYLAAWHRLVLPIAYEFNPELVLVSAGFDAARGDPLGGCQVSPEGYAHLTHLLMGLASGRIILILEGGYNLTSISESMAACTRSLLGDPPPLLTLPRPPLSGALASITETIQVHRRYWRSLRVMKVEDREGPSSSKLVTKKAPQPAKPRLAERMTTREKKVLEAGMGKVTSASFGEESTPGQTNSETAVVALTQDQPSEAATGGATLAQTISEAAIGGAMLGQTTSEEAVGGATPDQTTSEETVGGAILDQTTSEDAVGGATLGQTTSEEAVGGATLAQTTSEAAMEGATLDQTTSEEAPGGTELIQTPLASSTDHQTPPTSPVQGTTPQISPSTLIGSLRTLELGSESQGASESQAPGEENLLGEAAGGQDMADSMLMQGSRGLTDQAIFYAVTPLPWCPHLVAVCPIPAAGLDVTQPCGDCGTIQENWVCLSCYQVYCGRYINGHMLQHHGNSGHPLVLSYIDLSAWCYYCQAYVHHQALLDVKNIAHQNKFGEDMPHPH
Procedure: as §1

Sequence of Histone deacetylase 1 (Q13547 whole entry): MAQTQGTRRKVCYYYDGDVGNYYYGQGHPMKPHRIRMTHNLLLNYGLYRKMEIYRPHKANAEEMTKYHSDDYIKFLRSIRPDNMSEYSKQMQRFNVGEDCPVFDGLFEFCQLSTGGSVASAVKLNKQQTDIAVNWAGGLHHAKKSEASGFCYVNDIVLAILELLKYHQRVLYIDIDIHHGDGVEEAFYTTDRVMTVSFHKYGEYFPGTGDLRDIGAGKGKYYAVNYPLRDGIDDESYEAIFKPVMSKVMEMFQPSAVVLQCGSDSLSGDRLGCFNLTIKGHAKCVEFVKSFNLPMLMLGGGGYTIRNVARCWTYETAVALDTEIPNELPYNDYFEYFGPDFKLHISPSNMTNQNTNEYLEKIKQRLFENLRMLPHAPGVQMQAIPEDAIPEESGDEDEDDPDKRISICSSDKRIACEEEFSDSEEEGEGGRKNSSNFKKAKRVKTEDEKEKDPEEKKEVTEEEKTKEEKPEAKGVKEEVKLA

IC50 (Histone deacetylase 1): > 10000 nM
IC50 (Histone deacetylase 6): 54 nM
Compound: CN1CCN(c2c(N(Cc3ccc(-c4nnc(C(F)F)o4)cc3F)c3cc(F)cc(-c4ccncc4)c3)c(=O)c2=O)CC1 [US20260028321, Compound 9]
